In BindingDB's records for PubMed 8531090 (Roche Bioscience, 1995):
Positions of bridges follow the written chain, without caps; N, C: chain ends. Non-standard residues stand in square brackets, D forms with d. Residues, ends and D or L forms follow the SMILES beside them. Chains are numbered I, II in the order given. Dap = NC[C@H](N)C(=O)O

Molecular target: T1, Neuropeptide Y receptor type 1 (Rattus norvegicus, UniProt P21555)
T1 sequence (P21555 whole entry): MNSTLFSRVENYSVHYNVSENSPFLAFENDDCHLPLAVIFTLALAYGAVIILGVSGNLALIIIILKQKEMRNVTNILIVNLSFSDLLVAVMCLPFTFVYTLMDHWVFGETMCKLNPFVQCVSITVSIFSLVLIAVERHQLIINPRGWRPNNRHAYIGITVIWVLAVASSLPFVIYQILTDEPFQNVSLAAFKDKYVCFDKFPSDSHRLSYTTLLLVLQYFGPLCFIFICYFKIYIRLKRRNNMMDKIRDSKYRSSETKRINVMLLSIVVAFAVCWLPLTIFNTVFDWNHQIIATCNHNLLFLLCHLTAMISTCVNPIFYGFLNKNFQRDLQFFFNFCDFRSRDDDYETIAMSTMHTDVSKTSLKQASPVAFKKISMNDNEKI

Ki: 12.6 nM
SMILES: CC[C@H](C)[C@H](N)C(=O)N[C@H]1CCC(=O)NC[C@@H](C(=O)N[C@@H](Cc2ccc(O)cc2)C(=O)N[C@@H](CCCN=C(N)N)C(=O)N[C@@H](CC(C)C)C(=O)N[C@@H](CCCN=C(N)N)C(=O)N[C@@H](Cc2ccc(O)cc2)C(N)=O)NC(=O)[C@@H]2CCCN2C(=O)[C@@H](NC(=O)[C@@H](N)[C@@H](C)CC)CCC(=O)NC[C@@H](C(=O)N[C@@H](Cc2ccc(O)cc2)C(=O)N[C@@H](CCCN=C(N)N)C(=O)N[C@@H](CC(C)C)C(=O)N[C@@H](CCCN=C(N)N)C(=O)N[C@@H](Cc2ccc(O)cc2)C(N)=O)NC(=O)[C@@H]2CCCN2C1=O [1229U91] (I: H-IEP[Dap]YRLRY-NH2 / II: H-IEP[Dap]YRLRY-NH2; amide I:2-II:4, I:4-II:2)
